How the values were obtained:
Assay in all cases: relative viability (nuclei count vs DMSO), 5 days (fraction); higher = more cells survive
[1] = compound: O=C(CCCCCCC(=O)Nc1ccccc1)NO [Vorinostat]
How it was run: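 Lung cancer cell lines in 1536-well plates were exposed by pinning to five library-drug doses (not always all listed) √10 apart, following an overnight hold at 37 °C. MetaXpress counted Hoechst-stained nuclei from 4× images taken after 5 days without medium change. Viability is the median ratio of treated-well to vehicle-well nuclei across plates. Plates required control CV below 25% and at least one doubling.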

[2] = compound: O=C(CCCCCCC(=O)Nc1ccccc1)NO [Vorinostat] + CS(=O)(=O)CCNCc1ccc(-c2ccc3ncnc(Nc4ccc(OCc5cccc(F)c5)c(Cl)c4)c3c2)o1 [Lapatinib] (partner 2 µM)
How it was run: (§1)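 Lung cancer cell lines, seeded in 1536-well plates, were treated the following day by pin tool with a single drug or with five library-drug doses (not always all listed) in √10 steps on top of a fixed anchor-drug dose. Cells were fixed and nuclei stained in one step after 5 days, and nuclei were counted. Relative viability is the nuclei count for treated wells divided by that for vehicle wells, reported as medians of duplicate plates.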

[3] = compound: O=C(CCCCCCC(=O)Nc1ccccc1)NO [Vorinostat] + COc1cc2c(Oc3ccc(NC(=O)C4(C(=O)Nc5ccc(F)cc5)CC4)cc3F)ccnc2cc1OCCCN1CCOCC1 [Foretinib] (partner 0.25 µM)
How it was run: as §1

[4] = compound: O=C(CCCCCCC(=O)Nc1ccccc1)NO [Vorinostat] + CC(=O)c1c(C)c2cnc(Nc3ccc(N4CCNCC4)cn3)nc2n(C2CCCC2)c1=O [Palbociclib] (partner 0.5 µM)
How it was run: as §1

Row | Cell Line | relative viability ([1]; 0.253 µM) | relative viability ([1]; 0.8 µM) | relative viability ([1]; 1 µM, anchor plate) | relative viability ([1]; 2.53 µM) | relative viability ([1]; 8 µM) | relative viability ([2]; first compound 0.253 µM) | relative viability ([2]; first compound 0.8 µM) | relative viability ([2]; first compound 2.53 µM) | relative viability ([2]; first compound 8 µM) | relative viability ([3]; first compound 0.253 µM) | relative viability ([3]; first compound 0.8 µM) | relative viability ([3]; first compound 2.53 µM) | relative viability ([3]; first compound 8 µM) | relative viability ([4]; first compound 0.253 µM) | relative viability ([4]; first compound 0.8 µM) | relative viability ([4]; first compound 2.53 µM) | relative viability ([4]; first compound 8 µM)
1 | NCI-H1993 | 1.08 | 1 | 0.823 | 0.705 | 0.56 | 0.959 | 1 | 0.579 | 0.399 | 0.84 | 0.801 | 0.747 | 0.494 | 0.715 | 0.775 | 0.499 | 0.362
2 | NCI-H522 | 1.1 | 0.869 | 0.962 | 0.768 | 0.299 |  |  |  |  |  |  |  |  | 1.2 | 0.879 | 0.616 | 0.252
3 | NCI-H1944 | 0.927 | 0.707 | 0.57 | 0.341 | 0.21 | 0.77 | 0.572 | 0.43 | 0.236 | 0.832 | 0.594 | 0.321 | 0.142 | 0.31 | 0.272 | 0.176 | 0.118
4 | NCI-H1650 | 1.03 | 0.758 | 0.583 | 0.325 | 0.163 | 0.803 | 0.484 | 0.287 | 0.118 | 1.1 | 1 | 0.648 | 0.14 | 0.281 | 0.234 | 0.164 | 0.0922
5 | PC-3 [JPC-3] | 1.12 | 0.988 | 0.921 | 0.608 | 0.312 | 0.456 | 0.441 | 0.326 | 0.252 | 1.02 | 1.03 | 0.316 | 0.239 | 0.521 | 0.506 | 0.45 | 0.378
6 | 201T | 1.07 | 0.848 | 0.946 | 0.855 | 0.324 | 1.05 | 0.954 | 0.929 | 0.567 | 1.25 | 0.983 | 0.511 | 0.165 | 0.363 | 0.357 | 0.379 | 0.242
7 | COR-L 105 | 1.42 | 0.858 | 0.868 | 0.501 | 0.237 | 0.425 | 0.287 | 0.252 | 0.249 | 1.27 | 0.996 | 0.915 | 0.246 | 0.402 | 0.396 | 0.283 | 0.284
8 | EMC-BAC-2 | 0.92 | 0.752 | 0.493 | 0.363 | 0.176 | 1.04 | 0.871 | 0.405 | 0.149 | 1.02 | 0.977 | 0.4 | 0.172 | 0.49 | 0.425 | 0.254 | 0.203
9 | NCI-H661 | 1.11 | 0.974 | 0.8 | 0.548 | 0.351 | 0.549 | 0.682 | 0.275 | 0.161 | 1.11 | 0.843 | 0.447 | 0.298 | 0.437 | 0.377 | 0.286 | 0.32
10 | NCI-H322M | 1.17 | 0.87 | 0.915 | 0.6 | 0.385 | 0.733 | 0.608 | 0.522 | 0.352 | 1.1 | 0.925 | 0.428 | 0.309 | 0.487 | 0.445 | 0.418 | 0.356
11 | HCC-15 | 1.16 | 0.909 | 0.885 | 0.655 | 0.145 | 0.941 | 0.852 | 0.569 | 0.129 | 1.12 | 0.979 | 0.464 | 0.102 | 0.748 | 0.688 | 0.281 | 0.101
12 | BEN | 1.04 | 0.678 | 0.597 | 0.248 | 0.0942 | 0.819 | 0.379 | 0.151 | 0.0751 | 0.8 | 0.414 | 0.149 | 0.0734 | 0.433 | 0.455 | 0.301 | 0.155
13 | LCLC-103H | 1.08 | 0.961 | 0.781 | 0.812 | 0.272 |  |  |  |  | 0.924 | 0.801 | 0.243 | 0.135 | 0.494 | 0.424 | 0.368 | 0.302
14 | ChaGo-K-1 | 1.09 | 0.858 | 0.759 | 0.761 | 0.343 |  |  |  |  | 1 | 0.863 | 0.559 | 0.189 | 0.943 | 0.874 | 0.529 | 0.182
15 | NCI-H2342 | 0.936 | 1.02 | 0.756 | 0.756 | 0.458 |  |  |  |  | 0.975 | 1.07 | 0.587 | 0.385 | 0.529 | 0.502 | 0.58 | 0.488
16 | NCI-H441 | 1.13 | 1.05 | 0.773 | 0.418 | 0.18 |  |  |  |  | 0.874 | 0.971 | 0.59 | 0.175 | 0.241 | 0.249 | 0.157 | 0.101
17 | SW 900 | 0.653 | 0.644 | 0.576 | 0.391 | 0.128 |  |  |  |  | 0.925 | 0.927 | 0.644 | 0.111 | 0.513 | 0.526 | 0.219 | 0.136
18 | HCC-44 | 0.995 | 0.91 | 1.09 | 0.654 | 0.161 | 1.03 | 0.985 | 0.508 | 0.111 |  |  |  |  | 0.989 | 0.969 | 0.812 | 0.301
19 | IA-LM | 0.976 | 0.723 | 0.963 | 0.349 | 0.0685 | 0.765 | 0.636 | 0.247 | 0.073 | 1.17 | 1.14 | 0.342 | 0.039 |  |  |  | 
20 | NCI-H596 | 1.03 | 0.799 | 0.621 | 0.797 | 0.311 | 1.26 | 0.971 | 0.781 | 0.307 | 0.847 | 0.715 | 0.53 | 0.22 |  |  |  | 
21 | NCI-H1563 | 1.07 | 0.856 |  | 0.629 | 0.513 | 1.01 | 0.796 | 0.403 | 0.564 | 0.999 | 0.833 | 0.574 | 0.52 |  |  |  | 
22 | NCI-H1792 | 0.965 | 0.762 |  | 0.371 | 0.108 | 0.964 | 0.904 | 0.907 | 0.0753 |  |  |  |  | 0.725 | 0.57 | 0.485 | 0.175

Reference: the supplement of paper PMC10307832
